According to ChEMBL document CHEMBL1201862, “PubChem BioAssay data set” (2004):
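Cells were grown in 96-well plates and exposed to each compound for 48 hours at five concentrations; endpoints were interpolated linearly between bracketing concentrations, or set to the highest concentration if not reached. The concentration for 50% growth inhibition is given as GI50.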 Active and inactive are the calls of the source. Cut-off read from the data, not from the text of the source: active = GI50 up to about 1.1 µM and inactive = higher.

Legend:
Assay in all cases: NCI-60 cell line screen, 48 h
[1] = tested on: 786-0
[2] = tested on: A498
[3] = tested on: CCRF-CEM
[4] = tested on: HCT-116
[5] = tested on: HL-60
[6] = tested on: K562
[7] = tested on: M14
[8] = tested on: NCI-H226
[9] = tested on: NCI-H522
[10] = tested on: OVCAR-3
[11] = tested on: OVCAR-5
[12] = tested on: OVCAR-8
[13] = tested on: SF-268
[14] = tested on: UACC-257
[15] = tested on: DU-145
[16] = tested on: IGROV-1
[17] = tested on: SK-MEL-28
[18] = tested on: SK-MEL-5
[19] = tested on: MDA-MB-435

Compound	GI50 [1]	GI50 [2]	GI50 [3]	GI50 [4]	GI50 [5]	GI50 [6]	GI50 [7]	GI50 [8]	GI50 [9]	GI50 [10]	GI50 [11]	GI50 [12]	GI50 [13]	GI50 [14]	GI50 [15]	GI50 [16]	GI50 [17]	GI50 [18]	GI50 [19]
O=C(Nc1cc(Cl)c(Cl)cc1Cl)C(=O)C(C(=O)c1ccc(Cl)c(Cl)c1)C1OC(=O)c2ccccc21 (configuration not stated)	13.4 µM (inactive)	17.2 µM (inactive)	5.35 µM (inactive)	15.1 µM (inactive)	18 µM (inactive)	4.2 µM (inactive)	13.5 µM (inactive)	7.45 µM (inactive)	10.9 µM (inactive)	13.7 µM (inactive)	11.1 µM (inactive)	10.7 µM (inactive)	15.7 µM (inactive)	13.9 µM (inactive)	–	–	–	–	–
O=C1C(=Cc2c(O)cc(O)cc2O)C(=O)c2ccccc21	> 42.1 µM (inactive)	45.1 µM (inactive)	29.9 µM (inactive)	> 39.3 µM (inactive)	16.8 µM (inactive)	> 51.8 µM (inactive)	> 43.3 µM (inactive)	36 µM (inactive)	> 46 µM (inactive)	> 40.6 µM (inactive)	> 43 µM (inactive)	> 41.7 µM (inactive)	> 45.4 µM (inactive)	> 42.5 µM (inactive)	19.1 µM (inactive)	> 43.5 µM (inactive)	> 45.8 µM (inactive)	> 100 µM (inactive)	–
N#C/C(=C1\OC(=N)C(c2ccccc2)C1=O)c1ccccc1 (configuration not stated)	25 µM (inactive)	> 100 µM (inactive)	15.9 µM (inactive)	17.6 µM (inactive)	23.4 µM (inactive)	22.6 µM (inactive)	24.4 µM (inactive)	> 64.3 µM (inactive)	8.81 µM (inactive)	28.1 µM (inactive)	> 100 µM (inactive)	27.9 µM (inactive)	48.3 µM (inactive)	23 µM (inactive)	–	30.5 µM (inactive)	13.3 µM (inactive)	26.9 µM (inactive)	–
CCCCNC(=O)C1=C(C)NC(C)=C(C(=O)NCCCC)C1	> 100 µM (inactive)	> 100 µM (inactive)	–	> 100 µM (inactive)	71.1 µM (inactive)	–	> 100 µM (inactive)	> 100 µM (inactive)	–	> 100 µM (inactive)	> 100 µM (inactive)	> 100 µM (inactive)	> 100 µM (inactive)	> 100 µM (inactive)	> 100 µM (inactive)	61.1 µM (inactive)	> 100 µM (inactive)	89.7 µM (inactive)	> 100 µM (inactive)
COc1ccccc1NC(=O)C1=C(C)NC(C)=C(C(=O)Nc2ccccc2OC)C1C1=CC=COC1	11.5 µM (inactive)	6.17 µM (inactive)	7.87 µM (inactive)	4.53 µM (inactive)	3.94 µM (inactive)	3.78 µM (inactive)	5.2 µM (inactive)	> 100 µM (inactive)	–	3.11 µM (inactive)	36.4 µM (inactive)	14.6 µM (inactive)	13.6 µM (inactive)	13.6 µM (inactive)	–	10.8 µM (inactive)	18.8 µM (inactive)	5.06 µM (inactive)	–
COC1CC(O)C(OC(=O)c2ccccc2)C(C)O1 (configuration not stated)	> 100 µM (inactive)	> 100 µM (inactive)	> 100 µM (inactive)	> 100 µM (inactive)	> 100 µM (inactive)	> 100 µM (inactive)	> 100 µM (inactive)	> 100 µM (inactive)	> 100 µM (inactive)	> 100 µM (inactive)	> 100 µM (inactive)	> 100 µM (inactive)	> 100 µM (inactive)	> 10 µM (inactive)	–	> 100 µM (inactive)	> 100 µM (inactive)	> 100 µM (inactive)	–
OCC1OC(c2ccccc2)CC1O (configuration not stated)	> 100 µM (inactive)	> 100 µM (inactive)	> 100 µM (inactive)	> 100 µM (inactive)	> 100 µM (inactive)	> 100 µM (inactive)	> 100 µM (inactive)	> 100 µM (inactive)	–	> 100 µM (inactive)	> 100 µM (inactive)	> 100 µM (inactive)	–	> 100 µM (inactive)	> 100 µM (inactive)	> 100 µM (inactive)	> 100 µM (inactive)	> 100 µM (inactive)	> 100 µM (inactive)
CC1(c2cccc(C3CC4(CCC3=O)OCCCCO4)c2)OCCO1 (configuration not stated)	> 100 µM (inactive)	> 100 µM (inactive)	> 100 µM (inactive)	> 100 µM (inactive)	> 100 µM (inactive)	> 100 µM (inactive)	> 100 µM (inactive)	> 100 µM (inactive)	> 100 µM (inactive)	> 100 µM (inactive)	> 100 µM (inactive)	> 100 µM (inactive)	> 100 µM (inactive)	> 100 µM (inactive)	–	> 100 µM (inactive)	> 100 µM (inactive)	> 100 µM (inactive)	–
CN1CCc2cc3c4cc2C1Cc1ccc(cc1)Oc1cc(ccc1O)CC1c2c(cc(O)c(c2O4)O3)CCN1C (configuration not stated)	5.26 µM (inactive)	> 10 µM (inactive)	2.52 µM (inactive)	1.41 µM (inactive)	4.65 µM (inactive)	0.9 µM (active)	1.62 µM (inactive)	2.07 µM (inactive)	2.79 µM (inactive)	3.94 µM (inactive)	8.2 µM (inactive)	2.86 µM (inactive)	2.16 µM (inactive)	1.95 µM (inactive)	–	4.43 µM (inactive)	1.8 µM (inactive)	2.39 µM (inactive)	–
Cc1ccc(S(=O)(=O)OCC/C(=C\[Si](C)(C)C)c2ccccc2)cc1	> 100 µM (inactive)	> 100 µM (inactive)	> 100 µM (inactive)	> 100 µM (inactive)	91 µM (inactive)	> 100 µM (inactive)	> 100 µM (inactive)	> 100 µM (inactive)	> 100 µM (inactive)	> 100 µM (inactive)	> 100 µM (inactive)	> 100 µM (inactive)	> 100 µM (inactive)	> 100 µM (inactive)	–	> 100 µM (inactive)	> 100 µM (inactive)	> 100 µM (inactive)	–
CCc1c(OC(C)=O)c2c(NC3OCC(OC(C)=O)C(OC(C)=O)C3OC(C)=O)nc(SC)nc2oc1=O (configuration not stated)	> 100 µM (inactive)	> 100 µM (inactive)	> 100 µM (inactive)	> 100 µM (inactive)	> 100 µM (inactive)	> 100 µM (inactive)	> 100 µM (inactive)	> 100 µM (inactive)	–	> 100 µM (inactive)	> 100 µM (inactive)	> 100 µM (inactive)	–	> 100 µM (inactive)	–	> 100 µM (inactive)	–	> 100 µM (inactive)	–
COc1ccc(OC)c2cc(C3(C)SCCCS3)ccc12	73.6 µM (inactive)	> 100 µM (inactive)	71 µM (inactive)	83.4 µM (inactive)	59.3 µM (inactive)	53.5 µM (inactive)	65 µM (inactive)	–	–	> 100 µM (inactive)	> 100 µM (inactive)	> 100 µM (inactive)	> 100 µM (inactive)	> 100 µM (inactive)	–	> 100 µM (inactive)	> 100 µM (inactive)	> 100 µM (inactive)	–
O=C(NC1CC1)c1c(O)[nH]c(=S)[nH]c1=O	> 100 µM (inactive)	> 100 µM (inactive)	> 100 µM (inactive)	> 100 µM (inactive)	> 100 µM (inactive)	> 100 µM (inactive)	> 100 µM (inactive)	> 100 µM (inactive)	> 100 µM (inactive)	> 100 µM (inactive)	> 100 µM (inactive)	> 100 µM (inactive)	> 100 µM (inactive)	> 100 µM (inactive)	–	> 100 µM (inactive)	> 100 µM (inactive)	> 100 µM (inactive)	–
C=C1C(=O)C23CC1CCC2C12CO[C@@H]4OCC(C)(CC[C@@H]1OC3=O)C42 (some centres not stated)	2.24 µM (inactive)	19.4 µM (inactive)	2.38 µM (inactive)	2.08 µM (inactive)	0.569 µM (active)	7.69 µM (inactive)	1.31 µM (inactive)	20.7 µM (inactive)	1.01 µM (active)	6.49 µM (inactive)	15.8 µM (inactive)	2.02 µM (inactive)	6.32 µM (inactive)	4.98 µM (inactive)	–	6.95 µM (inactive)	2.23 µM (inactive)	14.8 µM (inactive)	–
COc1ncn(C2C=C(CO)C(O)C2O)c(=O)n1 (configuration not stated)	> 100 µM (inactive)	> 100 µM (inactive)	–	> 100 µM (inactive)	> 100 µM (inactive)	> 100 µM (inactive)	> 100 µM (inactive)	> 100 µM (inactive)	> 100 µM (inactive)	> 100 µM (inactive)	–	> 100 µM (inactive)	> 100 µM (inactive)	> 100 µM (inactive)	–	> 100 µM (inactive)	> 100 µM (inactive)	> 100 µM (inactive)	–
CCN(CC)CCCNC(=O)c1ccc([N+](=O)[O-])cc1O	> 100 µM (inactive)	> 100 µM (inactive)	> 100 µM (inactive)	–	> 100 µM (inactive)	> 100 µM (inactive)	> 100 µM (inactive)	> 100 µM (inactive)	> 100 µM (inactive)	> 100 µM (inactive)	> 100 µM (inactive)	> 100 µM (inactive)	> 100 µM (inactive)	> 100 µM (inactive)	–	> 100 µM (inactive)	> 100 µM (inactive)	> 100 µM (inactive)	–
O=C(N/N=C/c1cccc(F)c1)c1ccncc1	> 100 µM (inactive)	> 100 µM (inactive)	> 100 µM (inactive)	> 100 µM (inactive)	> 100 µM (inactive)	–	> 100 µM (inactive)	0.056 µM (active)	> 10 µM (inactive)	–	–	–	> 100 µM (inactive)	> 100 µM (inactive)	–	–	> 100 µM (inactive)	> 100 µM (inactive)	–
